Results taken from publication PMC10663540, “Structure-based discovery of dual pathway inhibitors for SARS-CoV-2 entry” (Nature Communications, 2023).
“And” between values parts separate entries of the source, which are not always exact repeats. Equal values may be shown once. Read-outs that look alike come from different tables or passages of the source.

What was measured:
in vitro = conditions: human
human CTSL = target: T1, human CTSL (Homo sapiens, UniProt P07711); assay: FRET enzymatic inhibition assay of CTSL (IC50 measurement); type: biochemical
T1 construct: made in house

Calu-3 cells = conditions: rep1-rep3
human CTSB = target: T2, human CTSB (Homo sapiens, UniProt P07858); assay: biochemical
T2 construct: […]; made in house

[1] = 0.0762939 nM, rep1-rep4, 7.62939e-05 µM
[2] = 0.152588 nM, rep1-rep4, 0.000152588 µM
[3] = 0.610352 nM, rep1-rep4, 0.000610352 µM
[4] = 1.2207 nM, rep1-rep4, 0.0012207 µM
[5] = 2.44141 nM, rep1-rep4, 0.00244141 µM
[6] = 4.88281 nM, rep1-rep4, 0.00488281 µM
[7] = 9.76562 nM, rep1-rep4, 0.00976562 µM
[8] = 19.5312 nM, rep1-rep4, 0.0195312 µM
[9] = 39.0625 nM, rep1-rep4, 0.0390625 µM
[10] = 78.125 nM, rep1-rep4, 0.078125 µM
[11] = 156.25 nM, rep1-rep4, 0.15625 µM
[12] = substrate Cbz-Phe-Arg-AMC, pH 5.5, mean ± SD, four replicates

T1 sequence (P07711 114-333): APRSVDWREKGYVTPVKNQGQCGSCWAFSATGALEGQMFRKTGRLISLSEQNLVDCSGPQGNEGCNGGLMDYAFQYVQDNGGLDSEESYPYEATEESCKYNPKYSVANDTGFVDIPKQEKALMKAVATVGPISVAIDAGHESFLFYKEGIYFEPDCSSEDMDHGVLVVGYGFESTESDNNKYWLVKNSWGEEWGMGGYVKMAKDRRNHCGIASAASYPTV

CN1CCN(C(=O)N[C@@H](Cc2ccccc2)C(=O)N[C@H](/C=C/S(=O)(=O)c2ccccc2)CCc2ccccc2)CC1 [K777]
CC50 (in vitro): 110 µM | Inhibition: CTSL (human CTSL; [1]): 1.13% and 5.78% and 3.59% and 2.15% | inhibition at 0.000152588 µM (human CTSL; 0.152588 nM, rep1-rep4): 5.42% | Inhibition: CTSL (human CTSL; [2]): 10.09% and 6.36% and 10.80% | inhibition at 0.000610352 µM (human CTSL; 0.610352 nM, rep1-rep4): 9.96% | Inhibition: CTSL (human CTSL; [3]): 11.08% and 11.88% and 12.12% | inhibition at 0.0012207 µM (human CTSL; 1.2207 nM, rep1-rep4): 14.1% | Inhibition: CTSL (human CTSL; [4]): 15.17% and 15.67% and 15.23% | inhibition at 0.00244141 µM (human CTSL; 2.44141 nM, rep1-rep4): 27.1% | Inhibition: CTSL (human CTSL; [5]): 29.89% and 27.84% and 28.16% | inhibition at 0.00488281 µM (human CTSL; 4.88281 nM, rep1-rep4): 46.7% | Inhibition: CTSL (human CTSL; [6]): 49.46% and 47.59% and 48.29% | inhibition at 0.00976562 µM (human CTSL; 9.76562 nM, rep1-rep4): 73.6% | Inhibition: CTSL (human CTSL; [7]): 74.62% and 72.91% and 72.68% | inhibition at 0.0195312 µM (human CTSL; 19.5312 nM, rep1-rep4): 93.2% | Inhibition: CTSL (human CTSL; [8]): 93.40% and 92.49% and 94.07% | inhibition at 0.0390625 µM (human CTSL; 39.0625 nM, rep1-rep4): 99.5% | Inhibition: CTSL (human CTSL; [9]): 98.76% and 99.78% and 99.61% | inhibition at 0.078125 µM (human CTSL; 78.125 nM, rep1-rep4): 100% | Inhibition: CTSL (human CTSL; [10]): 99.93% and 100.35% and 99.32% | inhibition at 0.15625 µM (human CTSL; 156.25 nM, rep1-rep4): 100% | Inhibition: CTSL (human CTSL; [11]): 100.75% and 100.78% | inhibition at 0.3125 µM (human CTSL; 312.5 nM, rep1-rep4): 100% | Inhibition: CTSL (human CTSL; 312.5 nM, rep1-rep4, 0.3125 µM): 100.44% and 100.24% and 99.50% | inhibition at 0.625 µM (human CTSL; 625 nM, rep1-rep4): 100% | Inhibition: CTSL (human CTSL; 625 nM, rep1-rep4, 0.625 µM): 100.05% and 99.89% | inhibition at 1.25 µM (human CTSL; 1250 nM, rep1-rep4): 100% | Inhibition: CTSL (human CTSL; 1250 nM, rep1-rep4, 1.25 µM): 100.44% and 100.07% and 99.92% | inhibition at 2.5 µM (human CTSL; 2500 nM, rep1-rep4): 100% | Inhibition: CTSL (human CTSL; 2500 nM, rep1-rep4, 2.5 µM): 100.03% and 100.38% and 100.68% | inhibition at 5 µM (human CTSL; 5000 nM, rep1-rep4): 100% | Inhibition: CTSL (human CTSL; 5000 nM, rep1-rep4, 5 µM): 100.04% and 100.18% and 100.13% | inhibition at 10 µM (human CTSL; 10000 nM, rep1-rep4): 100% | Inhibition: CTSL (human CTSL; 10000 nM, rep1-rep4, 10 µM): 100.22% and 100.09% and 99.98% | Cytotoxicity (Calu-3 cells; 0.017 μM): 8.99% and 10.05% and 10.29% | Cytotoxicity (Calu-3 cells; 0.05 μM): 20.39% and 20.63% and 20.94% | Cytotoxicity (Calu-3 cells; 0.15 μM): 17.33% and 17.61% and 17.94% | Cytotoxicity (Calu-3 cells; 0.46 μM): 15.43% and 15.73% and 16.02% | Cytotoxicity (Calu-3 cells; 4.1 μM): 16.54% and 16.77% and 16.98% | Cytotoxicity (Calu-3 cells; 12.3 μM): 18.57% and 18.78% and 19.05% | Cytotoxicity (Calu-3 cells; 37 μM): 15.46% and 15.63% and 15.88% | Cytotoxicity (Calu-3 cells; 111.1 μM): 60.74% and 60.66% and 60.71% | Cytotoxicity (Calu-3 cells; 333.3 μM): 97.79% and 97.81% | Cytotoxicity (Calu-3 cells; 1000 μM): 99.56%

CCOC(=O)C1OC1C(=O)NC(CC(C)C)C(=O)NCCC(C)C (stereo not shown) [E64d]
CC50 (in vitro): > 1000 µM | Inhibition: CTSB (human CTSB; [1]): 3.40% and 10.64% and 11.97% and 5.82% | Inhibition: CTSB (human CTSB; [4]): -7.91% and 0.42% and 2.07% and 0.65% | inhibition at 0.15625 µM (human CTSB; 156.25 nM, rep1-rep4): 35.3% | Inhibition: CTSB (human CTSB; [11]): 44.31% and 44.26% and 38.99% | inhibition at 0.3125 µM (human CTSB; 312.5 nM, rep1-rep4): 56.2% | Inhibition: CTSB (human CTSB; 312.5 nM, rep1-rep4, 0.3125 µM): 62.85% and 55.87% and 62.55% | inhibition at 0.625 µM (human CTSB; 625 nM, rep1-rep4): 80.1% | Inhibition: CTSB (human CTSB; 625 nM, rep1-rep4, 0.625 µM): 80.11% and 80.88% and 83.45% | inhibition at 1.25 µM (human CTSB; 1250 nM, rep1-rep4): 98.7% | Inhibition: CTSB (human CTSB; 1250 nM, rep1-rep4, 1.25 µM): 92.94% and 89.91% and 97.77% | inhibition at 2.5 µM (human CTSB; 2500 nM, rep1-rep4): 95.4% | Inhibition: CTSB (human CTSB; 2500 nM, rep1-rep4, 2.5 µM): 107.12% and 95.70% and 101.34% | inhibition at 5 µM (human CTSB; 5000 nM, rep1-rep4): 105% | Inhibition: CTSB (human CTSB; 5000 nM, rep1-rep4, 5 µM): 104.22% and 97.92% and 95.52% | inhibition at 10 µM (human CTSB; 10000 nM, rep1-rep4): 97.9% | Inhibition: CTSB (human CTSB; 10000 nM, rep1-rep4, 10 µM): 102.20% and 95.59% and 101.48% | IC50 (human CTSB; [12]): 0.244 µM | Inhibition: CTSL (human CTSL; [1]): 2.24% and 3.63% and 1.98% and 0.98% | Inhibition: CTSL (human CTSL; [2]): 2.65% and 3.08% and 2.24% and -1.44% | Inhibition: CTSL (human CTSL; [3]): 0.22% and 3.41% | Inhibition: CTSL (human CTSL; [4]): 6.37% and 4.18% | Inhibition: CTSL (human CTSL; [5]): 4.98% and 7.04% and 0.43% and 3.83% | Inhibition: CTSL (human CTSL; [6]): 0.11% and 3.42% and 5.91% and 2.54% | Inhibition: CTSL (human CTSL; [7]): 8.11% and 8.13% and 3.91% and 9.27% | inhibition at 0.0195312 µM (human CTSL; 19.5312 nM, rep1-rep4): 10.1% | Inhibition: CTSL (human CTSL; [8]): 17.79% and 9.24% and 15.72% | inhibition at 0.0390625 µM (human CTSL; 39.0625 nM, rep1-rep4): 26.6% | Inhibition: CTSL (human CTSL; [9]): 23.44% and 25.85% and 26.69% | inhibition at 0.078125 µM (human CTSL; 78.125 nM, rep1-rep4): 45.2% | Inhibition: CTSL (human CTSL; [10]): 44.64% and 44.43% and 46.07% | inhibition at 0.15625 µM (human CTSL; 156.25 nM, rep1-rep4): 72.7% | Inhibition: CTSL (human CTSL; [11]): 70.94% and 71.67% and 71.32% | inhibition at 0.3125 µM (human CTSL; 312.5 nM, rep1-rep4): 93.6% | Inhibition: CTSL (human CTSL; 312.5 nM, rep1-rep4, 0.3125 µM): 93.64% and 93.89% and 93.96% | inhibition at 0.625 µM (human CTSL; 625 nM, rep1-rep4): 99.2% | Inhibition: CTSL (human CTSL; 625 nM, rep1-rep4, 0.625 µM): 99.81% and 99.40% and 99.47% | inhibition at 1.25 µM (human CTSL; 1250 nM, rep1-rep4): 100% | Inhibition: CTSL (human CTSL; 1250 nM, rep1-rep4, 1.25 µM): 100.20% and 99.89% | inhibition at 2.5 µM (human CTSL; 2500 nM, rep1-rep4): 99.2% | Inhibition: CTSL (human CTSL; 2500 nM, rep1-rep4, 2.5 µM): 100.15% and 100.23% and 99.74% | inhibition at 5 µM (human CTSL; 5000 nM, rep1-rep4): 99.9% | Inhibition: CTSL (human CTSL; 5000 nM, rep1-rep4, 5 µM): 100.31% and 99.95% | inhibition at 10 µM (human CTSL; 10000 nM, rep1-rep4): 100% | Inhibition: CTSL (human CTSL; 10000 nM, rep1-rep4, 10 µM): 100.02% and 99.97% | IC50 (human CTSL; [12]): 0.0889 µM | Cytotoxicity (Calu-3 cells; 0.017 μM): 7.45% and 7.84% and 8.16% | Cytotoxicity (Calu-3 cells; 0.05 μM): 11.45% and 12.03% and 11.72% | Cytotoxicity (Calu-3 cells; 0.15 μM): 9.87% and 10.28% and 10.63% | Cytotoxicity (Calu-3 cells; 0.46 μM): 7.15% and 7.70% and 8.12% | Cytotoxicity (Calu-3 cells; 4.1 μM): 1.63% and 2.06% and 2.63% | Cytotoxicity (Calu-3 cells; 12.3 μM): -0.11% and 0.47% and 0.96% | Cytotoxicity (Calu-3 cells; 111.1 μM): -4.79% and -4.14% and -3.55% | Cytotoxicity (Calu-3 cells; 333.3 μM): 12.34% and 13.88% and 14.55% | Cytotoxicity (Calu-3 cells; 1000 μM): 23.12% and 23.57% and 24.06%

N=C(N)c1ccc2cc(OC(=O)c3ccc(N=C(N)N)cc3)ccc2c1 [Nafamostat]
CC50 (in vitro): 452 µM
